Reference: PMC4459817, “Vasculotide reduces endothelial permeability and tumor cell extravasation in the absence of binding to or agonistic activation of Tie2” (EMBO Molecular Medicine, 2015)

B1: recombinant human Ang1 (rhAng1) (ligand, UniProt Q15389 16-498, looked up)
chain: HIGCSNQRRSPENSGRRYNRIQHGQCAYTFILPEHDGNCRESTTDQYNTNALQRDAPHVEPDFSSQKLQHLEHVMENYTQWLQKLENYIVENMKSEMAQIQQNAVQNHTATMLEIGTSLLSQTAEQTRKLTDVETQVLNQTSRLEIQLLENSLSTYKLEKQLLQQTNEILKIHEKNSLLEHKILEMEGKHKEELDTLKEEKENLQGLVTRQTYIIQELEKQLNRATTNNSVLQKQQLELMDTVHNLVNLCTKEGVLLKGGKREEEKPFRDCADVYQAGFNKSGIYTIYINNMPEPKKVFCNMDVNGGGWTVIQHREDGSLDFQRGWKEYKMGFGNPSGEYWLGNEFIFAITSQRQYMLRIELMDWEGNRAYSQYDRFHIGNEKQNYRLYLKGHTGTAGKQSSLILHGADFSTKDADNDNCMCKCALMLTGGWWFDACGPSNLNGMFYTAGQNHGKLNGIKWHYFKGPSYSLRSTTMMIRPLDF
notes: angiopoietin-1, human, recombinant; also called angiopoietin-1; source: bought: R&D Systems (named for the Boyden chamber experiments)

What was measured:
Tie2 in HMVEC-DBls = assay: in vitro Tie2 phosphorylation (immunoprecipitation/immunoblot), HMVEC-DBl; type: cell-based, human; conditions: VT 10 ng/mL vs Ang1 200 ng/mL, presence or absence of serum/supplements, Fig7F
Text: Figure 7 In vitro Vasculotide vs. Ang1 stimulations: effects on Tie2 receptor phosphorylation in primary endothelial cells—HUVECs (A-E) and HMVEC-DBls (F) • A–F Primary human umbilical vein endothelial cells (HUVECs) or primary human dermal microvascular endothelial cells (HMVEC-DBls) were stimulated at 80% confluency with Vasculotide (treatment), Ang1 (positive control; ligand of Tie2), PBS (vehicle control), or VEGF (negative control; non-ligand of Tie2). Tie2 was immunoprecipitated from cell lysates and immunoblotted for total Tie2 or phosphotyrosine. […] Source data are available online for this figure. […]
Nodule areas were then […]
unit converted (to μm2) and normalized to total lung section area (including air spaces) using ROI measurements from ImageJ software (NIH).
7. Histological assessment of primary tumor viability and hypoxia
5-μm thick sections of PFA-fixed paraffin-embedded mammary fat pad tumors were subjected to: (i) standard hematoxylin and eosin (H&E) staining to visualize viable vs. necrotic regions; or (ii) standard IHC staining with a goat anti-human carbonic anhydrase IX (CAIX or CA9) antibody (R&D Systems AF2188, 1:80 dilution) plus hematoxylin counterstain to visualize hypoxic regions. […]
IHC staining for CAIX further marks a hypoxic band at the edge of the viability rim bordering the necrotic core – the thickness of this hypoxic edge was averaged over 12 measurements spaced 30o apart (see Fig. 5E).
8. Western immunoblotting for total or phosphorylated Tie2
Cultured ECs and TCs were lysed in RIPA lysis buffer as previously described (Bogdanovic et al, 2006).
Lung/ liver/ kidney tissues, which had been snap-frozen in liquid nitrogen once harvested from mice, were homogenized in RIPA lysis buffer (50 mM Tris-HCl pH 7.5, 150 mM NaCl, 1% Igepal, 0.5% sodium deoxycholate, 0.1% SDS, 1 mM Na3VO4 and protease inhibitors) at 4 °C. […]
(§1) Semi-quantitative densitometry analysis of immunoblots was performed using the ChemiGenius2 bioimaging system and GeneSnap/GeneTools software (Syngene). […]

[1] = test system: mouse Tie2-Fc (extracellular domain of Tie2); assay: pull-down assay, mouse Tie2-Fc; type: binding; conditions: mouse Tie2-Fc on protein A sepharose; rhAng1 20 ng or VT 100 ng, pH 7.4, 4°C; Fig9A,B
Text: To better understand the difficulties we had in observing Tie2 activation by VT, we sought to characterize the binding affinity and kinetics of VT to Tie2. Purified human or mouse Tie2-Fc (i.e., Fc-conjugated extracellular domains of Tie2) were first coupled to protein A sepharose beads for pull-down experiments (Fig9A and B) or immobilized on a Biacore CM5 sensor chip for surface plasmon resonance (SPR) experiments (Fig9C and Supplementary Fig S3).
Figure 9 Binding of Vasculotide vs. Ang1 variants to the extracellular domain of Tie2 • A–B Pull-down assay. Input ligands—rhAng1 (A) and VT (B)—were incubated with either protein A sepharose beads only, bead-conjugated mouse Tie2-Fc (mTie2), or bead-conjugated human Tie2-Fc (hTie2). […] The ‘unbound’ fraction is 7% of residual/free ligands remaining in the supernatant. • C Quantitative kinetics analysis by SPR. All analytes were run at increasing concentrations of 0.625, 1.25, 2.5, 5, and 10 nM, at 37°C and pH 7.4. […] Source data are available online for this figure. […]
as §1

| Molecule | Tie2 phosphorylation (Tie2 in HMVEC-DBls) | Tie2 phosphorylation (Tie2 in HMVEC-DBls; listed as VT) | pull-down by Tie2-Fc [1] |
| --- | --- | --- | --- |
| CHHHRHSF [Vasculotide, 4-armed maleimide-functionalized polyethylene glycol (PEG) backbone to link together four cysteine-capped T7 peptides, that is, CHHHRHSF] | did not activate Tie2 receptors in HMVEC-DBls | did not have similar activity as equimolar Ang1 | did not pull down any appreciable levels |
| B1 | strongly and consistently activated Tie2 phosphorylation |  | effectively pulled down the majority |
